According to article PMC7211198, “Phase 1b study of a small molecule antagonist of human chemokine (C-C motif) receptor 2 (PF-04136309) in combination with nab-paclitaxel/gemcitabine in first-line treatment of metastatic pancreatic ductal adenocarcinoma” (Investigational New Drugs, 2019):

Experiment: Safety and tolerability (TEAEs, SAEs, DLTs, RP2D) in phase Ib study
Type: in vivo, human
Excerpt: Safety assessments included collection of adverse events (AEs), serious AEs (SAEs), vital signs and physical examination, electrocardiogram (12-lead), laboratory assessments, including pregnancy test, and verification of concomitant treatments. A patient was considered as DLT-evaluable if the patient experienced a DLT or if otherwise, in the absence of a DLT, the patient received at least 85% of the planned doses of each study drug in the first 28-day cycle. DLTs were defined as any of the following events occurring in the first cycle of treatment (days 1 through 28) and attributed (i.e., judged to be at least possibly related) to the combination of PF-04136309 plus nab-paclitaxel/gemcitabine, where relationship with the combination could not be ruled out. DLTs were hematologic events of grade 4 neutropenia lasting >5 days; febrile neutropenia; grade ≥ 3 neutropenic infection; grade ≥ 3 thrombocytopenia with grade ≥ 2 bleeding; grade 4 thrombocytopenia; and nonhematologic events of grade 3 toxicities. Exceptions included nausea and vomiting responding to prophylaxis and/or treatment and lasting <7 days from each chemotherapy infusion period; diarrhea responding to treatment and lasting <7 days; grade 3 fatigue lasting <7 days; grade 3 QT interval corrected for heart rate prolongation (>500 msec) persisting after correction of any reversible causes; and/or grade 3 aspartate aminotransferase (AST) and/or alanine aminotransferase (ALT) increase lasting ≤7 days. All grade 4 toxicities and a delay of >2 weeks in receiving the next scheduled cycle due to persistent treatment-related toxicities were considered DLTs. AEs meeting DLT criteria in the dose-expansion phase included grade 3 events of diarrhea, hypokalemia, and dysesthesia and grade 4 hypoxia. […] AEs were graded according to the National Cancer Institute Common Terminology Criteria for Adverse Events, version 4.03.

[1] = 500 mg BID + nab-P/Gem, treatment-related SAE
[2] = 750 mg BID + nab-P/Gem, n = 4, treatment-related TEAE
[3] = 750 mg BID + nab-P/Gem, all-causality SAE
[4] = 750 mg BID + nab-P/Gem, all-causality TEAE

In the case of `O=C(NCC(=O)N1CC[C@H](N[C@H]2CC[C@@](O)(c3ccc(-c4ncccn4)cn3)CC2)C1)c1cccc(C(F)(F)F)c1` [PF-04136309], the “Any SAE, Grade 3” value [1] is reported as 3 (17.6) n (%), the “Any SAE, Grade 4” value [1] is reported as 1 (5.9) n (%) and the “Any SAE, Grade 5” value [1] is reported as 1 (5.9) n (%). For the same compound, the “Any SAE, Total” value [1] was 5 (29.4) n (%), the “Hypoxia, Grade 1” value [1] was 0 n (%) and the “Hypoxia, Grade 2” value [1] was 0 n (%). The “Hypoxia, Grade 3” value [1] was 0 n (%), the “Hypoxia, Grade 4” value [1] was 1 (5.9) n (%) and the “Hypoxia, Grade 5” value [1] was 0 n (%). For the same compound, the “Hypoxia, Total” value [1] was 1 (5.9) n (%), the “Pneumonia, Grade 1” value [1] was 0 n (%) and the “Pneumonia, Grade 2” value [1] was 0 n (%). The “Pneumonia, Grade 3” value [1] was 0 n (%), the “Pneumonia, Grade 4” value [1] was 0 n (%) and the “Pneumonia, Grade 5” value [1] was 1 (5.9) n (%). For the same compound, the “Pneumonia, Total” value [1] was 1 (5.9) n (%), the “Pneumonitis, Grade 1” value [1] was 0 n (%) and the “Pneumonitis, Grade 2” value [1] was 0 n (%). For the same compound, the “Pneumonitis, Grade 3” value [1] was 3 (17.6) n (%), the “Pneumonitis, Grade 4” value [1] was 0 n (%) and the “Pneumonitis, Grade 5” value [1] was 0 n (%). The “Pneumonitis, Total” value [1] was 3 (17.6) n (%), the “Pyrexia, Grade 1” value [1] was 0 n (%) and the “Pyrexia, Grade 2” value [1] was 1 (5.9) n (%). The “Pyrexia, Grade 3” value [1] was 0 n (%), the “Pyrexia, Grade 4” value [1] was 0 n (%) and the “Pyrexia, Grade 5” value [1] was 0 n (%). For the same compound, the “Pyrexia, Total” value [1] was 1 (5.9) n (%), the DLT events (500 mg BID starting dose, three of 17 patients, four DLTs) was “grade 3 dysesthesia, diarrhea, and hypokalemia and one event of grade 4 hypoxia” and the DLT (750 mg BID + nab-P/Gem, n = 4, first cycle (days 1 through 28)) was 1 (25) n (%). For the same compound, the “ALT increase, grade ≥3” value [2] was 1 (25.0) n (%), the “AST increase, grade ≥3” value [2] was 1 (25.0) n (%) and the “Anemia, grade ≥3” value [2] was 0 n (%). For the same compound, the “Fatigue, grade ≥3” value [2] was 0 n (%), the “Leukopenia, grade ≥3” value [2] was 3 (75.0) n (%) and the “Lymphopenia, grade ≥3” value [2] was 1 (25.0) n (%). The “Neutropenia, grade ≥3” value [2] was 3 (75.0) n (%), the “Pneumonitis, grade ≥3” value [2] was 0 n (%) and the “Any SAE, Grade 1” value [3] was 0 n (%). For the same compound, the “Any SAE, Grade 2” value [3] was 1 (25.0) n (%), the “Any SAE, Grade 3” value [3] was 2 (50.0) n (%) and the “Any SAE, Grade 4” value [3] was 0 n (%). For the same compound, the “Any SAE, Grade 5” value [3] was 0 n (%), the “Any SAE, Total” value [3] was 3 (75.0) n (%) and the “Appetite decrease, Grade 1” value [3] was 0 n (%). For the same compound, the “Appetite decrease, Grade 2” value [3] was 0 n (%), the “Appetite decrease, Grade 3” value [3] was 1 (25.0) n (%) and the “Appetite decrease, Grade 4” value [3] was 0 n (%). The “Appetite decrease, Grade 5” value [3] was 0 n (%), the “Appetite decrease, Total” value [3] was 1 (25.0) n (%) and the “Cellulitis, Grade 1” value [3] was 0 n (%). The “Cellulitis, Grade 2” value [3] was 0 n (%), the “Cellulitis, Grade 3” value [3] was 1 (25.0) n (%) and the “Cellulitis, Grade 4” value [3] was 0 n (%). The “Cellulitis, Grade 5” value [3] was 0 n (%), the “Cellulitis, Total” value [3] was 1 (25.0) n (%) and the “Cognitive disorder, Grade 1” value [3] was 0 n (%). The “Cognitive disorder, Grade 2” value [3] was 0 n (%), the “Cognitive disorder, Grade 3” value [3] was 1 (25.0) n (%) and the “Cognitive disorder, Grade 5” value [3] was 0 n (%). The “Cognitive disorder, Total” value [3] was 1 (25.0) n (%), the “Gastroesophageal reflux disease, Grade 1” value [3] was 0 n (%) and the “Gastroesophageal reflux disease, Grade 2” value [3] was 0 n (%). The “Gastroesophageal reflux disease, Grade 3” value [3] was 1 (25.0) n (%), the “Gastroesophageal reflux disease, Grade 4” value [3] was 0 n (%) and the “Gastroesophageal reflux disease, Grade 5” value [3] was 0 n (%). The “Gastroesophageal reflux disease, Total” value [3] was 1 (25.0) n (%), the “Rash, Grade 1” value [3] was 0 n (%) and the “Rash, Grade 2” value [3] was 1 (25.0) n (%). The “Rash, Grade 3” value [3] was 0 n (%), the “Rash, Grade 4” value [3] was 0 n (%) and the “Rash, Grade 5” value [3] was 0 n (%). The “Rash, Total” value [3] was 1 (25.0) n (%), the “ALT increase, Grade 1” value [4] was 0 n (%) and the “ALT increase, Grade 2” value [4] was 2 (50.0) n (%). For the same compound, the “ALT increase, Grade 3” value [4] was 1 (25.0) n (%), the “ALT increase, Grade 4” value [4] was 0 n (%) and the “ALT increase, Grade 5” value [4] was 0 n (%). For the same compound, the “ALT increase, Total” value [4] was 3 (75.0) n (%), the “Alopecia, Grade 1” value [4] was 2 (50.0) n (%) and the “Alopecia, Grade 2” value [4] was 1 (25.0) n (%). The “Alopecia, Grade 3” value [4] was 0 n (%), the “Alopecia, Grade 4” value [4] was 0 n (%) and the “Alopecia, Grade 5” value [4] was 0 n (%). For the same compound, the “Alopecia, Total” value [4] was 3 (75.0) n (%), the “Anemia, Grade 1” value [4] was 0 n (%) and the “Anemia, Grade 2” value [4] was 2 (50.0) n (%). The “Anemia, Grade 3” value [4] was 0 n (%), the “Anemia, Grade 4” value [4] was 0 n (%) and the “Anemia, Grade 5” value [4] was 0 n (%). The “Anemia, Total” value [4] was 2 (50.0) n (%), the “Any AE, Grade 1” value [4] was 0 n (%) and the “Any AE, Grade 2” value [4] was 0 n (%). For the same compound, the “Any AE, Grade 3” value [4] was 4 (100.0) n (%), the “Any AE, Grade 4” value [4] was 0 n (%) and the “Any AE, Grade 5” value [4] was 0 n (%). For the same compound, the “Any AE, Total” value [4] was 4 (100.0) n (%), the “Appetite decrease, Grade 1” value [4] was 1 (25.0) n (%) and the “Appetite decrease, Grade 2” value [4] was 0 n (%). For the same compound, the “Appetite decrease, Grade 3” value [4] was 1 (25.0) n (%), the “Appetite decrease, Grade 4” value [4] was 0 n (%) and the “Appetite decrease, Grade 5” value [4] was 0 n (%). The “Appetite decrease, Total” value [4] was 2 (50.0) n (%), the “Cellulitis, Grade 1” value [4] was 0 n (%) and the “Cellulitis, Grade 2” value [4] was 1 (25.0) n (%). For the same compound, the “Cellulitis, Grade 3” value [4] was 1 (25.0) n (%), the “Cellulitis, Grade 4” value [4] was 0 n (%) and the “Cellulitis, Grade 5” value [4] was 0 n (%). For the same compound, the “Cellulitis, Total” value [4] was 2 (50.0) n (%), the “Chills, Grade 1” value [4] was 2 (50.0) n (%) and the “Chills, Grade 2” value [4] was 0 n (%). For the same compound, the “Chills, Grade 3” value [4] was 0 n (%) and the “Chills, Grade 4” value [4] was 0 n (%).
